# Active and inactive are the calls of the source. No cut-off for these calls is given here.
# Legend:
# [1] = Apparent permeability of the compound across apical side to basolateral side in human Caco2 cells by LC-MS/MS analysis; assay type: ADME, cell-based; conditions: Caco-2
# [2] = target: Platelet-derived growth factor receptor alpha (Homo sapiens) (UniProt P16234); experiment: Inhibition of wild-type human partial length PDGFRA (V575 to D1002 residues) expressed in mammalian expression system by Kinomescan method
# [3] = Octanol-phosphate buffer partition coefficient, logD of compound at pH 7.4 by HPLC-UV analysis; assay type: physicochemical
# [4] = AUClast in CD-1 mouse at 1 mg/kg, iv administered as single dose by LC-MS/MS analysis; assay type: ADME, organism-based; parameters: dose 1 mg/kg, time 0 - last, route intravenous; conditions: in vivo
# [5] = target: Cytochrome P450 2D6 (Homo sapiens, UniProt P10635); experiment: Inhibition of CYP2D6 in human liver microsomes using dextromethorphan as substrate preincubated for 5 mins followed by NADPH addition by LC-MS/MS analysis; assay type: ADME
# [6] = target: Cytochrome P450 3A4 (Homo sapiens, UniProt P08684)
# Description: Inhibition of CYP3A4 in human liver microsomes using midazolam as substrate preincubated for 5 mins followed by NADPH addition measured after 5 mins by LC-MS/MS analysis
# [7] = Permeability of the compound by PAMPA; assay type: ADME; conditions: read-out: permeability
# [8] = target: Platelet-derived growth factor receptor alpha (Homo sapiens) (UniProt P16234); experiment: Inhibition of wild-type human partial length PDGFRA (V575 to D1002 residues) expressed in mammalian expression system at 1 uM by Kinomescan method relative to control
# [9] = Protein binding in human plasma at […] after 5 hrs by LC-MS/MS analysis; assay type: ADME, cell-free; conditions: read-out: PPB (converted)
# [10] = AUClast in CD-1 mouse at 5 mg/kg, po administered via gavage as single dose by LC-MS/MS analysis; assay type: ADME, organism-based; parameters: dose 5 mg/kg, time 0 - last, route oral; conditions: in vivo
# [11] = target: Serine/threonine-protein kinase 17A (Homo sapiens) (UniProt Q9UEE5); experiment: Inhibition of wild-type human partial length DRAK1 (R32 to E363 residues) expressed in bacterial expression system at 1 uM by Kinomescan method relative to control
# [12] = Half life in dog liver microsomes at 1 uM in presence of NADPH by LC-MS/MS analysis; assay type: ADME, Canis lupus familiaris, microsome
# [13] = target: Receptor-type tyrosine-protein kinase FLT3 (Homo sapiens) (UniProt P36888); experiment: Inhibition of wild-type human partial length FLT3 (V592 to Y969 residues) expressed in bacterial expression system by Kinomescan method
# [14] = Half life in CD-1 mouse at 1 mg/kg, iv administered as single dose by LC-MS/MS analysis; assay type: ADME, organism-based; conditions: in vivo
# [15] = target: Receptor-type tyrosine-protein kinase FLT3 (Homo sapiens) (UniProt P36888); experiment: Inhibition of wild-type human partial length FLT3 (V592 to Y969 residues) expressed in bacterial expression system at 1 uM by Kinomescan method relative to control
# [16] = target: Phosphorylase b kinase gamma catalytic chain, liver/testis isoform (Homo sapiens) (UniProt P15735); experiment: Inhibition of wild-type human partial length PHKG2 (M1 to W300 residues) expressed in bacterial expression system at 1 uM by Kinomescan method relative to control
# [17] = Thermodynamic solubility of the compound at pH 4 to 7.4 pION buffer after 18 hrs by UV spectrophotometric analysis; assay type: physicochemical; conditions: read-out: Therm_solubility
# [18] = target: MAP kinase-interacting serine/threonine-protein kinase 2 (Homo sapiens, UniProt Q9HBH9)
# Description: Inhibition of GST-tagged MNK2 (72 to 385 residues) (unknown origin) expressed in Escherichia coli BL21(DE3) using JH3 peptide as substrate preincubated for 10 mins followed by substrate and ATP addition measured after 60 mins
# [19] = Cmax in CD-1 mouse at 5 mg/kg, po administered via gavage as single dose by LC-MS/MS analysis; assay type: ADME, organism-based; parameters: dose 5 mg/kg, route oral; conditions: in vivo
# [20] = target: Mast/stem cell growth factor receptor Kit (Homo sapiens) (UniProt P10721); experiment: Inhibition of wild-type human partial length KIT (I571 to D952 residues) expressed in bacterial expression system at 1 uM by Kinomescan method relative to control
# [21] = Half life in CD-1 mouse at 5 mg/kg, po administered via gavage as single dose by LC-MS/MS analysis; assay type: ADME, organism-based; conditions: in vivo
# [22] = Oral bioavailability in CD-1 mouse at 5 mg/kg administered via gavage as single dose by LC-MS/MS analysis; assay type: ADME, organism-based; conditions: in vivo
# [23] = target: MAP kinase-interacting serine/threonine-protein kinase 1 (Homo sapiens, UniProt Q9BUB5)
# Description: Inhibition of GST-tagged MNK1 (37 to 341 residues) (unknown origin) expressed in Escherichia coli BL21(DE3) using JH3 peptide as substrate preincubated for 10 mins followed by substrate and ATP addition measured after 60 mins
# [24] = in vitro; conditions: human, liver microsomes
# Description: Half life in human liver microsomes at 1 uM in presence of NADPH by LC-MS/MS analysis
# [25] = target: Platelet-derived growth factor receptor beta (Homo sapiens) (UniProt P09619); experiment: Inhibition of wild-type human partial length PDGFRB (V582 to Y1009 residues) expressed in bacterial expression system at 1 uM by Kinomescan method relative to control
# [26] = Protein binding in mouse plasma at […] after 5 hrs by LC-MS/MS analysis; assay type: ADME, cell-free; conditions: read-out: PPB (converted)
# [27] = target: SRSF protein kinase 3 (Homo sapiens) (UniProt Q9UPE1); experiment: Inhibition of human SRPK3 (P41 to P567 residues) expressed in bacterial expression system at 1 uM by KINOMEscan assay relative to control
# [28] = target: MAP kinase-interacting serine/threonine-protein kinase 1/2 (Homo sapiens, UniProt Q9HBH9+Q9BUB5); experiment: Inhibition of MNK1/2 in human HeLa cells assessed as decrease in eIF4E phosphorylation at Ser209 after 2 hrs by AlphaScreen assay; assay type: cell-based
# [29] = Clearance in CD-1 mouse at 1 mg/kg, iv administered as single dose by LC-MS/MS analysis; assay type: ADME, organism-based; conditions: in vivo
# [30] = tested on: DOHH-2; experiment: Antiproliferative activity against human DOHH2 cells after 48 hrs by CellTiter-Glo luminescence assay; assay type: functional, cell-based
# [31] = in vitro; conditions: rat, liver microsomes
# Description: Half life in rat liver microsomes at 1 uM in presence of NADPH by LC-MS/MS analysis
# [32] = tested on: P3HR-1; experiment: Antiproliferative activity against human P3HR1 cells after 48 hrs by CellTiter-Glo luminescence assay; assay type: functional, cell-based
# [33] = organism: Homo sapiens; experiment: Antiproliferative activity against human GK5 cells after 48 hrs by CellTiter-Glo luminescence assay; assay type: functional, cell-based
# [34] = in vitro; conditions: mouse, liver microsomes
# Description: Half life in mouse liver microsomes at 1 uM in presence of NADPH by LC-MS/MS analysis
# [35] = Initial concentration in CD-1 mouse at 1 mg/kg, iv administered as single dose by LC-MS/MS analysis; assay type: ADME, organism-based; conditions: in vivo
# [36] = organism: Homo sapiens; experiment: Antiproliferative activity against human AHH1 cells after 48 hrs by CellTiter-Glo luminescence assay; assay type: functional, cell-based
# [37] = Oral bioavailability in mouse at 50 mg/kg; assay type: ADME, organism-based; conditions: in vivo
# [38] = tested on: Mus musculus; experiment: Toxicity in SCID mouse xenografted with human K562 cells overexpressing GFP-fussed full length mouse eIF4E assessed as weight loss at 25 to 100 mg/kg, po qd administered via gavage for 14 days cotreated with 2.5 mg/kg dasatinib for 1 hr post dose; assay type: organism-based; conditions: in vivo
# [39] = tested on: K562; experiment: Antitumor activity against human K562 cells overexpressing GFP-fussed full length mouse eIF4E xenografted in SCID mouse assessed as tumor growth inhibition at 100 mg/kg, po qd administered via gavage for 14 days relative to control; conditions: 336 h, read-out: TGI
# [40] = target: Dual specificity mitogen-activated protein kinase kinase; MEK1/2 (Homo sapiens) (UniProt P36507+Q02750); experiment: Inhibition of MEK (unknown origin) at 1 uM by KINOMEscan assay relative to control; assay type: protein assay
# [41] = tested on: Mus musculus; experiment: Toxicity in NOD/SCID mouse assessed as clinical adverse effect up to 200 mg/kg, po administered gavage treated for 7 consecutive days measured for 7 days post last dose; assay type: organism-based; conditions: in vivo, 168 h
# [42] = tested on: Mus musculus; experiment: Down regulation of phosphorylated CRKL in CB17 SCID mouse xenografted with human K562 cells overexpressing GFP-fussed full length mouse eIF4E at 100 mg/kg, po administered as single dose up to 8 hrs cotreated with 2.5 mg/kg dasatinib by Western blot; assay type: functional, organism-based
# [43] = tested on: K562; experiment: Antitumor activity against human K562 cells overexpressing GFP-fussed full length mouse eIF4E xenografted in SCID mouse assessed as tumor growth inhibition administered as qd via gavage for 14 days cotreated with 2.5 mg/kg dasatinib for 1 hr post dose; assay type: functional, organism-based
# [44] = in vivo; conditions: CD-1, mouse, po, 5 mg/kg
# Description: Tmax in CD-1 mouse at 5 mg/kg, po administered via gavage as single dose by LC-MS/MS analysis
# [45] = tested on: Mus musculus; experiment: Toxicity in NOD/SCID mouse assessed as change in weight loss up to 200 mg/kg, po administered gavage treated for 7 consecutive days measured for 7 days post last dose; assay type: organism-based; conditions: in vivo, 168 h
# [46] = tested on: K562; experiment: Antitumor activity against human K562 cells overexpressing GFP-fussed full length mouse eIF4E xenografted in SCID mouse assessed as increase in tumor free animal at 100 mg/kg, po administered as qd via gavage for 14 days cotreated with 2.5 mg/kg dasatinib for 1 hr post dose; assay type: functional, organism-based
# [47] = tested on: Mus musculus; experiment: Down regulation of phosphorylated eIF4E in CB17 SCID mouse xenografted with human K562 cells overexpressing GFP-fussed full length mouse eIF4E at 100 mg/kg, po administered as single dose up to 8 hrs cotreated with 2.5 mg/kg dasatinib by Western blot; assay type: functional, organism-based
# [48] = tested on: K562; experiment: Antitumor activity against human K562 cells overexpressing GFP-fussed full length mouse eIF4E xenografted in SCID mouse assessed as tumor growth inhibition at 2.5 mg/kg, po qd administered via gavage for 5 days on 2 days off per cycle for 2 cycles relative to control; assay type: functional; conditions: read-out: TGI
# Sequence of Cytochrome P450 3A4 (P08684 whole entry): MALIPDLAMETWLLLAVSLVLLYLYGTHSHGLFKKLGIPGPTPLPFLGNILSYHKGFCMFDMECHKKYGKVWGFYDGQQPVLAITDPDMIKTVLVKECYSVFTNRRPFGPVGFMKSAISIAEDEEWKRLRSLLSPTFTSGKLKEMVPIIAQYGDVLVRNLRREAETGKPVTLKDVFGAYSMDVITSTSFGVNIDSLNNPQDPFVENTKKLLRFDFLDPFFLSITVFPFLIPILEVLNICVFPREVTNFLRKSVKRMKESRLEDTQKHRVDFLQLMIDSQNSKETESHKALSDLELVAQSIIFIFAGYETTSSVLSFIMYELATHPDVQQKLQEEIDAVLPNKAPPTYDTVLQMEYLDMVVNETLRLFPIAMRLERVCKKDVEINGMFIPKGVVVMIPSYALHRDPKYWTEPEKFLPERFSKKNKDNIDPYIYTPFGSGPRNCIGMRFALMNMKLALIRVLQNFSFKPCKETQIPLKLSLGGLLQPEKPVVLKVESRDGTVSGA
# Sequence of Cytochrome P450 2D6 (P10635 whole entry): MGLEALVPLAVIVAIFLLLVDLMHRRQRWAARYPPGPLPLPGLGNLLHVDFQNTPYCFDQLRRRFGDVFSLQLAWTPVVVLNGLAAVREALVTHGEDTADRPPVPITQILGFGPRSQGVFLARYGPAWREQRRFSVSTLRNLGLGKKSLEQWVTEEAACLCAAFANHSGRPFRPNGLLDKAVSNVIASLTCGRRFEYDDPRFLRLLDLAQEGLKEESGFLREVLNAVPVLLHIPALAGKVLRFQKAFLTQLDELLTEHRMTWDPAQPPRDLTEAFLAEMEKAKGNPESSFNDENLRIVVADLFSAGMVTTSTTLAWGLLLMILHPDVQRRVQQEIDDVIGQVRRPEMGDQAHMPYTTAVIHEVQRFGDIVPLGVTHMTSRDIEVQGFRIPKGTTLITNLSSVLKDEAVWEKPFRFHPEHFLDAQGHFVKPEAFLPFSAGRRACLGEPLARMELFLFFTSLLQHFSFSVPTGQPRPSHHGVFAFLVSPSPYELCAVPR
# Sequence of Receptor-type tyrosine-protein kinase FLT3 (Homo sapiens) (P36888 whole entry, the tested form may be a part, canonical isoform): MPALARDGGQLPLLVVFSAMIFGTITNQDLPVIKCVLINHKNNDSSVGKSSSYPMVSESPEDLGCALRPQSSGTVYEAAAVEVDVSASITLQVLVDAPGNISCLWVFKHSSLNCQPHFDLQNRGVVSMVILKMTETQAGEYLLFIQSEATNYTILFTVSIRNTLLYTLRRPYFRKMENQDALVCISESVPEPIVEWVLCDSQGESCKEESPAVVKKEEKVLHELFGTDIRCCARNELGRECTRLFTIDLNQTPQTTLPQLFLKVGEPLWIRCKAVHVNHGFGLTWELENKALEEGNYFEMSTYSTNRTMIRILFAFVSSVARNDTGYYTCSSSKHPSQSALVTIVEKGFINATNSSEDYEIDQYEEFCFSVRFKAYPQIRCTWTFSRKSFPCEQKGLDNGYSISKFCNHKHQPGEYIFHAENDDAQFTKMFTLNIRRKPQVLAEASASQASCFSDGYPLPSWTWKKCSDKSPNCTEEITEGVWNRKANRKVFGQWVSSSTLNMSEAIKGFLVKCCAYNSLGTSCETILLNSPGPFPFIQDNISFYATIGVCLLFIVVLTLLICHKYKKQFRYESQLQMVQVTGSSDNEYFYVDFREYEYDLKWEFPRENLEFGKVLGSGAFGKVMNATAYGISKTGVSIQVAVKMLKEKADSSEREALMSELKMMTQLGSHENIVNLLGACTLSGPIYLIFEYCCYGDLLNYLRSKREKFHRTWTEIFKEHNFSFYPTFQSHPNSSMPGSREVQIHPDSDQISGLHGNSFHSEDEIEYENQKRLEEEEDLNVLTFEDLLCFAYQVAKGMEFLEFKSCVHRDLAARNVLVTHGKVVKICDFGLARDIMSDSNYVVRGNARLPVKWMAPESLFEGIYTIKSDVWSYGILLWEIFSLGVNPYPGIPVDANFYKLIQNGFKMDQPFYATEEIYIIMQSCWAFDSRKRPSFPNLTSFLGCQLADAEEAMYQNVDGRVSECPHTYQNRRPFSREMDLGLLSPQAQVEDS
# Sequence of Platelet-derived growth factor receptor alpha (Homo sapiens) (P16234 whole entry, the tested form may be a part): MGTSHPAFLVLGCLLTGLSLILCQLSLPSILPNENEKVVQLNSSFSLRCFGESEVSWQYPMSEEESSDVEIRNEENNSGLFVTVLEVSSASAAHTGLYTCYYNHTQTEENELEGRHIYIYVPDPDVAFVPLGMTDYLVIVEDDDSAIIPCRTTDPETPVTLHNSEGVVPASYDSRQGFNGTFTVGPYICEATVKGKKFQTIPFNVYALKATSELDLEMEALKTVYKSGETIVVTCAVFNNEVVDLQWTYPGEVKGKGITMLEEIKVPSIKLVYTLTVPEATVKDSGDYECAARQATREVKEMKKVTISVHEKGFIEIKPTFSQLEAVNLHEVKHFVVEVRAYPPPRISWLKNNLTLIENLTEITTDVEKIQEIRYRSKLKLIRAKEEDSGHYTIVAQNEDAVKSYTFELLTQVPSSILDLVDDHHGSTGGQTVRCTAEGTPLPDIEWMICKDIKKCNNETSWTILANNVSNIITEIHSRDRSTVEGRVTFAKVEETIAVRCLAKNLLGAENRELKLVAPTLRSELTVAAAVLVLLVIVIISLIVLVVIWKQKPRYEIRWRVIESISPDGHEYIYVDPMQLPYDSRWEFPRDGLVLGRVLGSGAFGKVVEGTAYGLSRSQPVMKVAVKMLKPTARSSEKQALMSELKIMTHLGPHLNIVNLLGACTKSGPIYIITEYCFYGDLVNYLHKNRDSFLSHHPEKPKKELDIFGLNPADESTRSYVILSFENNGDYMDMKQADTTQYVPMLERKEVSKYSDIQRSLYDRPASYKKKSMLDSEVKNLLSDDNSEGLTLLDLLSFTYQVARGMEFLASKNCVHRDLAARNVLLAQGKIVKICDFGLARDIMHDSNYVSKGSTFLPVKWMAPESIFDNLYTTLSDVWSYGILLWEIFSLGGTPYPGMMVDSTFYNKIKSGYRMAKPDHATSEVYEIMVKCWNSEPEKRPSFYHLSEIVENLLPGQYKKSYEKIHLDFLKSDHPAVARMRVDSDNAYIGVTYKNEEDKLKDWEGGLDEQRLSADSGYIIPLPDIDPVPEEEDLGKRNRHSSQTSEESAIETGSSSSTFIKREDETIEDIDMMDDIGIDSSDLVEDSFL
# Sequence of Phosphorylase b kinase gamma catalytic chain, liver/testis isoform (Homo sapiens) (P15735 whole entry, the tested form may be a part, canonical isoform): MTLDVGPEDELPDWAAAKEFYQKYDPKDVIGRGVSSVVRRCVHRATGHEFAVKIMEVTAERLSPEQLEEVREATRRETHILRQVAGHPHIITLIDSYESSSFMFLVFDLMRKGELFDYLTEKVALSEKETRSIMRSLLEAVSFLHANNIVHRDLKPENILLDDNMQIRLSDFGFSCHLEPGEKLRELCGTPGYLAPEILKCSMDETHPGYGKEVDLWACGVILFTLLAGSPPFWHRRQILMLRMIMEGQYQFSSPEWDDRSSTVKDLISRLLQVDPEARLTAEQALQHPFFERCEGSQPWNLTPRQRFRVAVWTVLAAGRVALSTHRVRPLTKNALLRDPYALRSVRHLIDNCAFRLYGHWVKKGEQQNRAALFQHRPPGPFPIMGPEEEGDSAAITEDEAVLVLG
# Sequence of SRSF protein kinase 3 (Homo sapiens) (Q9UPE1 whole entry, the tested form may be a part): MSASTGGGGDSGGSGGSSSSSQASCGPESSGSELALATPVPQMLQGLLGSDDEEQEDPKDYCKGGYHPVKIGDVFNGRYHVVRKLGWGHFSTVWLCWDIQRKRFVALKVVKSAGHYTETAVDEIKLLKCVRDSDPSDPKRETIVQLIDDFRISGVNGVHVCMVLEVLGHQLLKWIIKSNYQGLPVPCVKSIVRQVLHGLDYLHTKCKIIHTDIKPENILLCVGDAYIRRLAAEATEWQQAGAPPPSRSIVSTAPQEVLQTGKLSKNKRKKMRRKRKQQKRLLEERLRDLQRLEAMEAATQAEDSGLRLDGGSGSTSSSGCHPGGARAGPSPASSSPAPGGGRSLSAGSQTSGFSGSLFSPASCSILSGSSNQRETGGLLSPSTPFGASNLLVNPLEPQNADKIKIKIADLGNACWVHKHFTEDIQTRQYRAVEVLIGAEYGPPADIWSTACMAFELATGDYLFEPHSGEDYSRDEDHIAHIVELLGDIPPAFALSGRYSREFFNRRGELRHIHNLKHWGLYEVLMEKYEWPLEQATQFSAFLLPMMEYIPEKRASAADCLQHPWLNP
# Sequence of MAP kinase-interacting serine/threonine-protein kinase 1 (Q9BUB5 whole entry): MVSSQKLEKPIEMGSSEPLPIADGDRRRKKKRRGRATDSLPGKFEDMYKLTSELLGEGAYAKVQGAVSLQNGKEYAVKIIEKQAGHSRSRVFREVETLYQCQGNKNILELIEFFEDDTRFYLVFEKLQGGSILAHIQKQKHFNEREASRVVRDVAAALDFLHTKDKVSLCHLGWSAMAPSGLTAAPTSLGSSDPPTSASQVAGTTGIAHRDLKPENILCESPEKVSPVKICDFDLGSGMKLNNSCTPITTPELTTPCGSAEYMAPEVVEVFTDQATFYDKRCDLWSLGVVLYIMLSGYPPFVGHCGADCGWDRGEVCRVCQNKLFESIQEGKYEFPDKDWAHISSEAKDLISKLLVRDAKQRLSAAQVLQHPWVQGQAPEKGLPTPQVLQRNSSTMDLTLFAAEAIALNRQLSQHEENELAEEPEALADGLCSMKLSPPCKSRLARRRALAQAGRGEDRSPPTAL
# Sequence of MAP kinase-interacting serine/threonine-protein kinase 2 (Q9HBH9 whole entry): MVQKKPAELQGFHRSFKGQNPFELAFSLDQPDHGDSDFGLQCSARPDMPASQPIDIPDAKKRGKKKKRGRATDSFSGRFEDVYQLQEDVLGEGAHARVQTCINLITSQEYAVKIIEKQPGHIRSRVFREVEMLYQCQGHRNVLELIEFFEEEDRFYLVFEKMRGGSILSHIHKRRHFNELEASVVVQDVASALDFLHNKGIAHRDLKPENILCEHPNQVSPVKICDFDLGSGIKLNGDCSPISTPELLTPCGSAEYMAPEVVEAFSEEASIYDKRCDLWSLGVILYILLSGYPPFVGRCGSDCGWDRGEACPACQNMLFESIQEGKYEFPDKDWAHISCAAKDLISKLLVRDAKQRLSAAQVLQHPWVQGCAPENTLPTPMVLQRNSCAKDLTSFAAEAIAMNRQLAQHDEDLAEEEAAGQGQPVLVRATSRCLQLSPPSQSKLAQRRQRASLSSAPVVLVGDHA
Papp A→B [1],logD [3],AUC(0-t) [4],IC50 [5],IC50 [6],Papp [7],fraction unbound at 5 h [9],AUC(0-t) [10],half-life at 1 µM [12],half-life [14],solubility thermodynamic at 18 h [17],Cmax [19],half-life [21],bioavailability [22],half-life at 1 µM [24],fraction unbound at 5 h [26],clearance [29],half-life at 1 µM [31],half-life at 1 µM [34],SMILES,Activity [30],also measured
38.5 ×10⁻⁶ cm/s,2.1,6120 ng·h/mL,> 20 µM,> 20 µM,30 ×10⁻⁶ cm/s,0.001,24100 ng·h/mL,> 1 h,2.32 h,1.8 µg/mL,4400 ng/mL,2.14 h,79%,0.883 h,0.055,2.67 mL/min/kg,> 1 h,> 1 h,N#Cc1ccc(-c2cnc3ccc(-c4ccc(C(=O)N5CCOCC5)cc4)nn23)cc1,Active,INH [2]: 0.25 µM; inhibition [8]: > 65%; inhibition [11]: > 65%; INH [13]: 0.88 µM; inhibition [15]: > 65%; inhibition [16]: > 65%; IC50 [18]: 0.041 µM; inhibition [20]: > 65%; IC50 [23]: 0.023 µM; inhibition [25]: > 65%; inhibition [27]: > 65%; IC50 [28]: 0.421 µM; Activity [32]: Active; Activity [33]: Active; C0 [35]: 2940 ng/mL; Activity [36]: Active
6.87 ×10⁻⁶ cm/s,1.67,,> 20 µM,> 20 µM,102 ×10⁻⁶ cm/s,0.016,,,,> 125 µg/mL,,,,0.683 h,0.129,,,0.617 h,CN1CCN(C(=O)c2ccc(-c3cn4c(-c5ccc(C#N)cc5)cnc4cn3)cc2)CC1,,bioavailability [37]: 48%
30.5 ×10⁻⁶ cm/s,2.61,1760 ng·h/mL,> 20 µM,> 20 µM,74.4 ×10⁻⁶ cm/s,0.003,5480 ng·h/mL,> 1 h,1.7 h,55.4 µg/mL,2480 ng/mL,1.77 h,64%,0.8 h,0.158,9.33 mL/min/kg,> 1 h,0.933 h,N#Cc1ccc(-c2cnc3ccc(-c4ccc(C(=O)N5CCOCC5)cc4)cn23)cc1 [TINODASERTIB],Active,Activity [38]: Non-Toxic; inhibition in vivo at 100 mg/kg [39]: 23%; inhibition [40]: > 65%; Activity [41]: Non-Toxic; Activity [42]: Active; TGI [43]: Dose-dependent effect; Tmax [44]: 0.5 h; Activity [45]: Non-Toxic; Activity [46]: Active; Activity [32]: Active; Activity [33]: Active; C0 [35]: 2380 ng/mL; Activity [36]: Active; Activity [47]: Active
,,,,,,,,,,,,,,,,,,,Cc1nc(Nc2ncc(C(=O)Nc3c(C)cccc3Cl)s2)cc(N2CCN(CCO)CC2)n1 [DASATINIB],,inhibition in vivo at 2.5 mg/kg [48]: 88%
